Source: ChEMBL document CHEMBL1201862, “PubChem BioAssay data set” (2004)
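Cultured in 96-well plates, cells were exposed to test compound for 48 hours across five concentrations. At the GI50, growth is halved.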 Activity calls are given as the source filed them. Cut-off read from the data, not from the text of the source: active = GI50 up to about 1.1 µM and inactive = higher.

How the values were obtained:
Assay in all cases: growth of human tumour cells (NCI), 48 h
OVCAR-5 = test system: OVCAR-5
MDA-MB-435 = test system: MDA-MB-435
OVCAR-8 = test system: OVCAR-8
BT-549 = test system: BT-549
Hs-578T = test system: Hs-578T
SW-620 = test system: SW-620
HCT-116 = test system: HCT-116
K562 = test system: K562
NCI-H226 = test system: NCI-H226
RPMI-8226 = test system: RPMI-8226
OVCAR-3 = test system: OVCAR-3
RXF 393 = test system: RXF 393
UACC-257 = test system: UACC-257
SK-MEL-28 = test system: SK-MEL-28
SK-OV-3 = test system: SK-OV-3
Malme-3M = test system: Malme-3M
SK-MEL-5 = test system: SK-MEL-5
MDA-N = test system: MDA-N
SR = test system: SR
MOLT-4 = test system: MOLT-4
HCC 2998 = test system: HCC 2998
PC-3 = test system: PC-3
SN12C = test system: SN12C
HOP-92 = test system: HOP-92
UO-31 = test system: UO-31
DU-145 = test system: DU-145
IGROV-1 = test system: IGROV-1
A498 = test system: A498
SF-268 = test system: SF-268
A549 = test system: A549
NCI-H460 = test system: NCI-H460
MCF7 = test system: MCF7
SF-295 = test system: SF-295
SK-MEL-2 = test system: SK-MEL-2
UACC-62 = test system: UACC-62
ACHN = test system: ACHN
U-251 = test system: U-251
EKVX = test system: EKVX
OVCAR-4 = test system: OVCAR-4
KM12 = test system: KM12
SNB-19 = test system: SNB-19
HCT-15 = test system: HCT-15
NCI-H23 = test system: NCI-H23
COLO 205 = test system: COLO 205
M14 = test system: M14
NCI/ADR-RES = test system: NCI/ADR-RES
CCRF-CEM = test system: CCRF-CEM
HL-60 = test system: HL-60
SF-539 = test system: SF-539
786-0 = test system: 786-0
TK-10 = test system: TK-10
HT-29 = test system: HT-29
NCI-H522 = test system: NCI-H522
SNB-75 = test system: SNB-75
CAKI-1 = test system: CAKI-1
MDA-MB-231 = test system: MDA-MB-231
HOP-62 = test system: HOP-62
T47D = test system: T47D
LOX IMVI = test system: LOX IMVI

Structure (SMILES): CC1OC(OC2C(O)C(O)C(O)C(O)C2O)C(N)CC1NC(=N)C(=O)O (configuration not stated)
- GI50 (OVCAR-5): > 100 µM (inactive)
- GI50 (MDA-MB-435): > 100 µM (inactive)
- GI50 (OVCAR-8): > 100 µM (inactive)
- GI50 (BT-549): > 100 µM (inactive)
- GI50 (Hs-578T): > 100 µM (inactive)
- GI50 (SW-620): > 100 µM (inactive)
- GI50 (HCT-116): > 100 µM (inactive)
- GI50 (K562): > 100 µM (inactive)
- GI50 (NCI-H226): > 100 µM (inactive)
- GI50 (RPMI-8226): > 100 µM (inactive)
- GI50 (OVCAR-3): > 100 µM (inactive)
- GI50 (RXF 393): > 100 µM (inactive)
- GI50 (UACC-257): > 100 µM (inactive)
- GI50 (SK-MEL-28): > 100 µM (inactive)
- GI50 (SK-OV-3): > 100 µM (inactive)
- GI50 (Malme-3M): > 100 µM (inactive)
- GI50 (SK-MEL-5): > 100 µM (inactive)
- GI50 (MDA-N): > 100 µM (inactive)
- GI50 (SR): > 100 µM (inactive)
- GI50 (MOLT-4): > 100 µM (inactive)
- GI50 (HCC 2998): > 100 µM (inactive)
- GI50 (PC-3): > 100 µM (inactive)
- GI50 (SN12C): > 100 µM (inactive)
- GI50 (HOP-92): > 100 µM (inactive)
- GI50 (UO-31): > 100 µM (inactive)
- GI50 (DU-145): > 100 µM (inactive)
- GI50 (IGROV-1): > 100 µM (inactive)
- GI50 (A498): > 100 µM (inactive)
- GI50 (SF-268): > 100 µM (inactive)
- GI50 (A549): > 100 µM (inactive)
- GI50 (NCI-H460): > 100 µM (inactive)
- GI50 (MCF7): > 100 µM (inactive)
- GI50 (SF-295): > 100 µM (inactive)
- GI50 (SK-MEL-2): > 100 µM (inactive)
- GI50 (UACC-62): > 100 µM (inactive)
- GI50 (ACHN): > 100 µM (inactive)
- GI50 (U-251): > 100 µM (inactive)
- GI50 (EKVX): > 100 µM (inactive)
- GI50 (OVCAR-4): > 100 µM (inactive)
- GI50 (KM12): > 100 µM (inactive)
- GI50 (SNB-19): > 100 µM (inactive)
- GI50 (HCT-15): > 100 µM
- GI50 (NCI-H23): > 100 µM (inactive)
- GI50 (COLO 205): > 100 µM (inactive)
- GI50 (M14): > 100 µM (inactive)
- GI50 (NCI/ADR-RES): > 100 µM (inactive)
- GI50 (CCRF-CEM): > 100 µM (inactive)
- GI50 (HL-60): > 100 µM (inactive)
- GI50 (SF-539): > 100 µM (inactive)
- GI50 (786-0): > 100 µM (inactive)
- GI50 (TK-10): > 100 µM (inactive)
- GI50 (HT-29): > 100 µM (inactive)
- GI50 (NCI-H522): > 100 µM (inactive)
- GI50 (SNB-75): > 100 µM (inactive)
- GI50 (CAKI-1): > 100 µM (inactive)
- GI50 (MDA-MB-231): > 100 µM (inactive)
- GI50 (HOP-62): > 100 µM (inactive)
- GI50 (T47D): > 100 µM (inactive)
- GI50 (LOX IMVI): > 100 µM (inactive)

Structure (SMILES): CCC1(CC)N=C(C(F)(F)F)c2cc(C(=O)C(F)(F)F)c3ccccc3c2N1
- GI50 (OVCAR-5): 13.4 µM (inactive)
- GI50 (MDA-MB-435): 3.58 µM (inactive)
- GI50 (OVCAR-8): 3.66 µM (inactive)
- GI50 (BT-549): 5.87 µM (inactive)
- GI50 (Hs-578T): 5.83 µM (inactive)
- GI50 (SW-620): 4.78 µM (inactive)
- GI50 (HCT-116): 3.44 µM (inactive)
- GI50 (K562): 3.72 µM (inactive)
- GI50 (NCI-H226): 6.5 µM (inactive)
- GI50 (RPMI-8226): 2.58 µM (inactive)
- GI50 (OVCAR-3): 2.73 µM (inactive)
- GI50 (RXF 393): 3.15 µM (inactive)
- GI50 (UACC-257): 7.8 µM (inactive)
- GI50 (SK-MEL-28): 8.26 µM (inactive)
- GI50 (SK-OV-3): 17.7 µM (inactive)
- GI50 (Malme-3M): 11.4 µM (inactive)
- GI50 (SK-MEL-5): 1.77 µM (inactive)
- GI50 (MDA-N): 3.15 µM (inactive)
- GI50 (SR): 2.98 µM (inactive)
- GI50 (MOLT-4): 2.82 µM (inactive)
- GI50 (HCC 2998): 4.39 µM (inactive)
- GI50 (PC-3): 3.3 µM (inactive)
- GI50 (SN12C): 3.41 µM (inactive)
- GI50 (HOP-92): 2.67 µM (inactive)
- GI50 (UO-31): 3.3 µM (inactive)
- GI50 (DU-145): 3.6 µM (inactive)
- GI50 (IGROV-1): 3.76 µM (inactive)
- GI50 (A498): 15.6 µM (inactive)
- GI50 (SF-268): 8.43 µM (inactive)
- GI50 (A549): 9.71 µM (inactive)
- GI50 (NCI-H460): 4.16 µM (inactive)
- GI50 (MCF7): 3.77 µM (inactive)
- GI50 (SF-295): 3.14 µM (inactive)
- GI50 (SK-MEL-2): 2.81 µM (inactive)
- GI50 (UACC-62): 3.36 µM (inactive)
- GI50 (ACHN): 4.3 µM (inactive)
- GI50 (U-251): 3.64 µM (inactive)
- GI50 (EKVX): 10.2 µM (inactive)
- GI50 (OVCAR-4): 4.57 µM (inactive)
- GI50 (KM12): 3.99 µM (inactive)
- GI50 (SNB-19): 5.15 µM (inactive)
- GI50 (HCT-15): 4.22 µM
- GI50 (NCI-H23): 3.24 µM (inactive)
- GI50 (COLO 205): 14 µM (inactive)
- GI50 (M14): 4.89 µM (inactive)
- GI50 (NCI/ADR-RES): 4.14 µM (inactive)
- GI50 (CCRF-CEM): 3.67 µM (inactive)
- GI50 (HL-60): 2.95 µM (inactive)
- GI50 (SF-539): 17.9 µM (inactive)
- GI50 (786-0): 3.87 µM (inactive)
- GI50 (TK-10): 8.63 µM (inactive)
- GI50 (HT-29): 3.7 µM (inactive)
- GI50 (NCI-H522): 3.94 µM (inactive)
- GI50 (SNB-75): 4.2 µM (inactive)
- GI50 (CAKI-1): 3.99 µM (inactive)
- GI50 (MDA-MB-231): 3.44 µM (inactive)
- GI50 (HOP-62): 5.19 µM (inactive)
- GI50 (T47D): 3.75 µM (inactive)
- GI50 (LOX IMVI): 3.64 µM (inactive)

Structure (SMILES): C(#CC1(Nc2ccccc2)CCN(Cc2ccccc2)CC1)C1(Nc2ccccc2)CCN(Cc2ccccc2)CC1
- GI50 (OVCAR-5): 53.3 µM (inactive)
- GI50 (MDA-MB-435): 25.8 µM (inactive)
- GI50 (OVCAR-8): 21.6 µM (inactive)
- GI50 (BT-549): 34.6 µM (inactive)
- GI50 (Hs-578T): 10 µM (inactive)
- GI50 (SW-620): 11.2 µM (inactive)
- GI50 (HCT-116): 19.4 µM (inactive)
- GI50 (K562): 1.62 µM (inactive)
- GI50 (NCI-H226): 26.7 µM (inactive)
- GI50 (RPMI-8226): 1.18 µM (inactive)
- GI50 (OVCAR-3): 37.8 µM (inactive)
- GI50 (RXF 393): 12.5 µM (inactive)
- GI50 (UACC-257): 2.08 µM (inactive)
- GI50 (SK-MEL-28): 4.8 µM (inactive)
- GI50 (SK-OV-3): 5.01 µM (inactive)
- GI50 (Malme-3M): 3.17 µM (inactive)
- GI50 (SK-MEL-5): 3.88 µM (inactive)
- GI50 (MDA-N): 14.5 µM (inactive)
- GI50 (SR): 3.15 µM (inactive)
- GI50 (MOLT-4): 4.17 µM (inactive)
- GI50 (HCC 2998): 0.818 µM (active)
- GI50 (PC-3): 15.1 µM (inactive)
- GI50 (SN12C): 24.2 µM (inactive)
- GI50 (HOP-92): 4.95 µM (inactive)
- GI50 (UO-31): 15.5 µM (inactive)
- GI50 (DU-145): 46.9 µM (inactive)
- GI50 (IGROV-1): 22.9 µM (inactive)
- GI50 (A498): 30.1 µM (inactive)
- GI50 (SF-268): 29.1 µM (inactive)
- GI50 (A549): 23.6 µM (inactive)
- GI50 (NCI-H460): 16.3 µM (inactive)
- GI50 (MCF7): 31.5 µM (inactive)
- GI50 (SF-295): 22.3 µM (inactive)
- GI50 (SK-MEL-2): 10.5 µM (inactive)
- GI50 (UACC-62): 13.2 µM (inactive)
- GI50 (ACHN): 39.4 µM (inactive)
- GI50 (U-251): 19.9 µM (inactive)
- GI50 (EKVX): 40.6 µM (inactive)
- GI50 (OVCAR-4): 19.3 µM (inactive)
- GI50 (KM12): 35.3 µM (inactive)
- GI50 (SNB-19): 23.8 µM (inactive)
- GI50 (HCT-15): 22.2 µM
- GI50 (NCI-H23): 37.8 µM (inactive)
- GI50 (COLO 205): 1.31 µM (inactive)
- GI50 (M14): 11.2 µM (inactive)
- GI50 (NCI/ADR-RES): 34.7 µM (inactive)
- GI50 (CCRF-CEM): 6.27 µM (inactive)
- GI50 (HL-60): 1.56 µM (inactive)
- GI50 (SF-539): 5.5 µM (inactive)
- GI50 (786-0): 17.3 µM (inactive)
- GI50 (TK-10): 13.2 µM (inactive)
- GI50 (HT-29): 4.72 µM (inactive)
- GI50 (NCI-H522): 24.8 µM (inactive)
- GI50 (SNB-75): 10 µM (inactive)
- GI50 (CAKI-1): 24.3 µM (inactive)
- GI50 (MDA-MB-231): 16.3 µM (inactive)
- GI50 (HOP-62): 16.7 µM (inactive)
- GI50 (T47D): 9.31 µM (inactive)
- GI50 (LOX IMVI): 5.14 µM (inactive)
